# Source: patent publication US10689622B2, “Culture medium for proliferating stem cell, which contains sulfated compound” (AJINOMOTO CO., INC., priority 2012, dated 2020)
# Biological target: T1, bFGF (Homo sapiens, UniProt P09038)
# T1 construct: purchased Lonza (via TAKARA BIO INC.) Ser. No. 00/190,632
# Assay: Evaluation of bFGF stabilization in Lonza serum-free medium (ELISA)
# Type: biochemical
# Summary of the method: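 Compound in PBS diluted 10-fold into serum-free medium and held sealed at 37 °C for 7 days (some sets 3 days). Remaining bFGF quantified by human bFGF sandwich ELISA against a standard curve. Controls were compound-free PBS-medium kept at 37 °C or 4 °C for the same period.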
# T1 sequence (P09038 143-288): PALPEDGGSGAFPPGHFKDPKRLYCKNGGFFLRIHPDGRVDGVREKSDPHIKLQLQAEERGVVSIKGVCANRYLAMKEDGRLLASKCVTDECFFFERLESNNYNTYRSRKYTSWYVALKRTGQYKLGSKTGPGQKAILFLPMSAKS
structure (smiles),measurement,setting,value
O=S(=O)([O-])OC[C@H]1O[C@@](COS(=O)(=O)[O-])(O[C@H]2O[C@H](COS(=O)(=O)[O-])[C@@H](OS(=O)(=O)[O-])[C@H](OS(=O)(=O)[O-])[C@H]2OS(=O)(=O)[O-])[C@@H](OS(=O)(=O)[O-])[C@@H]1OS(=O)(=O)[O-].[K+].[K+].[K+].[K+].[K+].[K+].[K+].[K+] [sucrose 8SO3K],concentration showing a suppressive effect on a decrease in the bFGF concentration in the medium,"Lonza serum-free medium, 37° C. for 3 days",not less than 250 ng/ml
same,bFGF concentration relative to that of 4° C. control (ELISA),"Lonza serum-free medium, 37° C. for 3 days, test compound 25 ng/ml",x (bFGF concentration was less than 10% relative to that of 4 °C control)
same,bFGF concentration relative to that of 4° C. control (ELISA),"Lonza serum-free medium, 37° C. for 3 days, test compound 250 ng/ml",− (bFGF concentration was not less than 10% and less than 30% relative to that of 4 °C control)
same,bFGF concentration relative to that of 4° C. control (ELISA),"Lonza serum-free medium, 37° C. for 3 days, test compound 25 μg/ml",+++ (bFGF concentration was not less than 70% relative to that of 4 °C control)
same,bFGF concentration relative to that of 4° C. control (ELISA),"Lonza serum-free medium, 37° C. for 3 days, test compound 250 μg/ml",+++ (bFGF concentration was not less than 70% relative to that of 4 °C control)
same,bFGF concentration relative to that of 4° C. control (ELISA),"Lonza serum-free medium, 37° C. for 7 days, test compound 25 ng/ml",x (bFGF concentration was less than 10% relative to that of 4 °C control)
same,bFGF concentration relative to that of 4° C. control (ELISA),"Lonza serum-free medium, 37° C. for 7 days, test compound 250 ng/ml",x (bFGF concentration was less than 10% relative to that of 4 °C control)
same,bFGF concentration relative to that of 4° C. control (ELISA),"Lonza serum-free medium, 37° C. for 7 days, test compound 25 μg/ml",− (bFGF concentration was not less than 10% and less than 30% relative to that of 4 °C control)
same,bFGF concentration relative to that of 4° C. control (ELISA),"Lonza serum-free medium, 37° C. for 7 days, test compound 250 μg/ml",+ (bFGF concentration was not less than 30% and less than 50% relative to that of 4 °C control)
same,effectiveness ELISA,"effectiveness in ELISA evaluation of mesenchymal stem cells (medium), 4° C. control ratio",+ (+ 30%<)
